Read-outs that look alike come from different tables or passages of the source.
Tests used:
Format in all cases: cell-based
[1] = target: protein kinases (human kinome) (Homo sapiens, UniProt Q16539); conditions: for logFC: MAPK14 (Q16539) protein abundance, degrader vs DMSO, down; for logFC MAPK14: MAPK14, accession Q16539, direction of change down
[2] = target: protein kinases (human kinome) (Homo sapiens, UniProt P42684); conditions: for logFC: ABL2 (P42684) protein abundance, degrader vs DMSO, down
[3] = target: protein kinases (human kinome) (Homo sapiens, UniProt P41240); conditions: for logFC of CSK: Accession P41240; for logFC CSK: CSK (P41240), down
[4] = target: T1, protein kinases (human kinome) (Homo sapiens, UniProt Q12851); conditions: for logFC MAP4K2 (Q12851): direction down; for logFC: MAP4K2 (Q12851)
T1 sequence (Q12851 1-820): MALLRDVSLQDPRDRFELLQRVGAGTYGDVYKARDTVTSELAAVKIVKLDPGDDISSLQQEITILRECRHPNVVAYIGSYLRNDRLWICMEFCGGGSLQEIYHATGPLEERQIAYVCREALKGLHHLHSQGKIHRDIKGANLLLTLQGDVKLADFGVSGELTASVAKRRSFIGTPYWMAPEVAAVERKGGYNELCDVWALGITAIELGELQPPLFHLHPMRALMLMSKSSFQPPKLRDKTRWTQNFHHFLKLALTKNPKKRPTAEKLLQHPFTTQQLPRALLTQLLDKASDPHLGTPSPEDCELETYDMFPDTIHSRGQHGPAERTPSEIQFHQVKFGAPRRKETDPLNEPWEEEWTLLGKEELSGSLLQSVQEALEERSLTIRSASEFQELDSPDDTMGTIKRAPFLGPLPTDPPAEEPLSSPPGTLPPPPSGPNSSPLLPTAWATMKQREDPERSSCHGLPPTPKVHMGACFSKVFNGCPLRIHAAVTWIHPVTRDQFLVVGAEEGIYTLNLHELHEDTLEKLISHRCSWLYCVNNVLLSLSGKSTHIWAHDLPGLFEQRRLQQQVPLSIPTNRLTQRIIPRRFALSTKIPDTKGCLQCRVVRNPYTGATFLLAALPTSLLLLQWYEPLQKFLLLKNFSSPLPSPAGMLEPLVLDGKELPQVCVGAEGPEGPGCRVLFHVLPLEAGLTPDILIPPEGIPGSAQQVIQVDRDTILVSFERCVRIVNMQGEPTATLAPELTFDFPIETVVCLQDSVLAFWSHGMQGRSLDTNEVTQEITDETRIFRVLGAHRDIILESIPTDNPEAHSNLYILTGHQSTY

[5] = target: protein kinases (human kinome) (Homo sapiens, UniProt P24941)
[6] = experiment wp146, direction of change down

Chain of protein kinases (human kinome) (Homo sapiens, UniProt Q16539) (Q16539 whole entry): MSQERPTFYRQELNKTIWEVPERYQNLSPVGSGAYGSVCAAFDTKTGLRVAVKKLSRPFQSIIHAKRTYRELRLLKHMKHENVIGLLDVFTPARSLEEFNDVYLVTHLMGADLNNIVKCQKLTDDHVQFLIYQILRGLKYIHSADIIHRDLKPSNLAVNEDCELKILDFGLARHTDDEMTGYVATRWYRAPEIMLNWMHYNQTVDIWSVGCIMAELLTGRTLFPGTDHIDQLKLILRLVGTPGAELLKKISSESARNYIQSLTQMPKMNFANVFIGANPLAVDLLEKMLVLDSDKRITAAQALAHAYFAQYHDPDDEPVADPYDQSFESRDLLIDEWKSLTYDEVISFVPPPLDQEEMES
Chain of protein kinases (human kinome) (Homo sapiens, UniProt P41240) (P41240 whole entry): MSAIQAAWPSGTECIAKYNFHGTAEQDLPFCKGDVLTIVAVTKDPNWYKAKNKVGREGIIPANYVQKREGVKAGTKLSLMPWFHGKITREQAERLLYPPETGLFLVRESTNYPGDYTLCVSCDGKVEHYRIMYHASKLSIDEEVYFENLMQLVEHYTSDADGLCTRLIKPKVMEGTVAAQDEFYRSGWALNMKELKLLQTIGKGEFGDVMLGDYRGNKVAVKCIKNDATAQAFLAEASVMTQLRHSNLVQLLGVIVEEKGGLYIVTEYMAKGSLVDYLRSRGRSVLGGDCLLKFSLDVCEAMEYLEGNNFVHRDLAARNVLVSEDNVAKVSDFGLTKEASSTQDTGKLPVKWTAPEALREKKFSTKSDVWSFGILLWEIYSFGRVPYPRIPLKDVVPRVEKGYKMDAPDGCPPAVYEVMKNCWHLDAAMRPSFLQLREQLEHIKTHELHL
Chain of protein kinases (human kinome) (Homo sapiens, UniProt P42684) (P42684 whole entry): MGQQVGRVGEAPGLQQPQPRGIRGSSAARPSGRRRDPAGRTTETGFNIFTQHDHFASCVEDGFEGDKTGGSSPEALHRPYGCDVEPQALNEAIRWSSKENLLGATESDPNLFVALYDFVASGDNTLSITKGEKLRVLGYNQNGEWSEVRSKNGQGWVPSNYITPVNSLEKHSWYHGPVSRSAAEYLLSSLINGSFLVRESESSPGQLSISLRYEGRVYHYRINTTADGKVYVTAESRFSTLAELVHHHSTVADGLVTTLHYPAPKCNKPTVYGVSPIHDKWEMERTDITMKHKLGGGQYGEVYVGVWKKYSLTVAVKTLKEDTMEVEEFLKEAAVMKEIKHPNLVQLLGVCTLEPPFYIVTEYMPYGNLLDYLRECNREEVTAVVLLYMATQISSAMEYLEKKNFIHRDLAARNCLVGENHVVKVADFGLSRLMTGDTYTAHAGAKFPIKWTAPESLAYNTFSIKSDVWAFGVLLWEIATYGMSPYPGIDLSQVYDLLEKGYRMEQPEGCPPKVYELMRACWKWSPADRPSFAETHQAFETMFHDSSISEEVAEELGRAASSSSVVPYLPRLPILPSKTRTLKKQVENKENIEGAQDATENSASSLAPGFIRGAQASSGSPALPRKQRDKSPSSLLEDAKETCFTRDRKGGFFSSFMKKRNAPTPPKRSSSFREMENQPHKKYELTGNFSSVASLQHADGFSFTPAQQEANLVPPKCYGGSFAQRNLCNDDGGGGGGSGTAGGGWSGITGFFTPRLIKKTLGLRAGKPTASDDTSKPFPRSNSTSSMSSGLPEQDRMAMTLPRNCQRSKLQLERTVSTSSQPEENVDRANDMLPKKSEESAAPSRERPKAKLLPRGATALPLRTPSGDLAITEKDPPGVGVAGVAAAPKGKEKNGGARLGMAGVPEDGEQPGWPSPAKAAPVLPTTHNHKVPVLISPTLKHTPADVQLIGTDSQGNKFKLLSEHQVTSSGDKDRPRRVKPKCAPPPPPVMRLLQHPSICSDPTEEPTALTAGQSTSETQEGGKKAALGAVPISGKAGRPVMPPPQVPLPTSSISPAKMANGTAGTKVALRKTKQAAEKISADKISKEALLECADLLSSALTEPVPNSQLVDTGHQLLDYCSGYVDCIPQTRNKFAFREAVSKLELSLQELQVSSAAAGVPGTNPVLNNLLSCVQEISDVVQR

Compound: Cc1ccc(NC(=O)c2cccc(C(F)(F)F)c2)cc1N1Cc2cnc(Nc3ccc(N4CCN(CCCCCCOc5cccc6c5C(=O)N(C5CCC(=O)NC5=O)C6=O)CC4)nc3)nc2N(C)C1=O (stereo not shown) [DB0663]
- logFC [1]: −0.6293
- logFC MAPK14 ([1]; experiment wp045): −0.6293
- logFC [2]: −0.6022
- logFC ABL2 (P42684) ([2]; Experiment wp045): −0.6022
- logFC of CSK ([3]; experiment wp045): −1.206
- logFC CSK ([3]; experiment wp045): −1.206
- logFC MAP4K2 (Q12851) ([4]; Experiment wp046): −0.3823
- logFC ([4]; experiment wp045): −0.3823

Compound: Cc1ncsc1-c1ccc([C@H](C)NC(=O)[C@@H]2C[C@@H](O)CN2C(=O)[C@@H](NC(=O)CCCCCN2CCN(c3ccc(Nc4ncc5scc(-c6cccc(NS(C)(=O)=O)c6)c5n4)cc3)CC2)C(C)(C)C)cc1 [RSS0680, (2S,4R)-1-((S)-3,3-Dimethyl-2-(6-(4-(4-((7-(3-(methylsulfonamido)phenyl)thieno[3,2-d]pyrimidin-2-yl)amino)phenyl)piperazin-1-yl)hexanamido)butanoyl)-4-hydroxy-N—((S)-1-(4-(4-methylthiazol-5yl)phenyl)ethyl)pyrrolidine-2-carboxamide]
- logFC CDK2 (P24941-1) ([5]; Experiment wp117): −0.6588
- logFC CDK2 (P24941-1) ([5]; experiment wp080): −0.4202
- logFC CDK2 (P24941-1) ([5]; experiment wp080, direction of change down): −0.4202
- logFC CDK2 (P24941-1) ([5]; experiment wp117, direction of change down): −0.6588

Compound: Nc1ncnc2c1c(-c1ccc(Oc3ccccc3)cc1)nn2[C@H]1CC[C@H](N2CCN(CCOCCNC(=O)CNc3cccc4c3C(=O)N(C3CCC(=O)NC3=O)C4=O)CC2)CC1 (stereo partly shown) [SB1.G.181]
- logFC [2]: −2.405
- logFC ABL2 (P42684) ([2]; experiment wp071): −2.405
- logFC of CSK ([3]; experiment wp071): −3.229
- logFC CSK ([3]; experiment wp071): −3.229

Compound: CC(C)S(=O)(=O)c1ccccc1Nc1nc(Nc2ccc(N3CCN(CCOCCNC(=O)CNc4ccc5c(c4)C(=O)N(C4CCC(=O)NC4=O)C5=O)CC3)cc2)ncc1Cl (stereo not shown) [SK.3.93]
- logFC [2]: −0.5278
- logFC ABL2 (P42684) ([2]; experiment wp016): −0.5278
- logFC CDK2 (P24941-1) ([5]; experiment wp016): −0.5433
- logFC CDK2 (P24941-1) ([5]; experiment wp016, direction of change down): −0.5433

Compound: Cc1ccc(C(=O)Nc2ccc(CN3CCN(CCOCCOCCNC(=O)CNc4cccc5c4C(=O)N(C4CCC(=O)NC4=O)C5=O)CC3)c(C(F)(F)F)c2)cc1C#Cc1cnc2cccnn12 (stereo not shown) [TL13.150]
- logFC [1]: −0.3738
- logFC MAPK14 ([1]; experiment wp081): −0.3738
- logFC MAP4K2 (Q12851) ([4]; Experiment wp081): −1.088
- logFC ([4]; experiment wp081): −1.088

Compound: NC(=O)c1c(F)cccc1Nc1nc(Nc2ccc(S(=O)(=O)NCCOCCOCCOCCOCCNc3cccc4c3C(=O)N(C3CCC(=O)NC3=O)C4=O)cc2)ncc1Br (stereo not shown) [TMX.02.138]
- logFC CDK2 (P24941-1) ([5]; experiment wp146): −2.27
- logFC CDK2 (P24941-1) [5, 6]: −2.27

Compound: Cc1cc(Nc2ncc(Br)c(Nc3cccc(F)c3C(N)=O)n2)ccc1S(=O)(=O)NCCOCCOCCOCCOCCNc1cccc2c1C(=O)N(C1CCC(=O)NC1=O)C2=O (stereo not shown) [TMX.02.174]
- logFC CDK2 (P24941-1) ([5]; experiment wp146): −2.295
- logFC CDK2 (P24941-1) [5, 6]: −2.295

— patent US20240269139A1, “COMPOUNDS FOR TARGETED PROTEIN DEGRADATION OF KINASES” (DANA-FARBER CANCER INSTITUTE, INC., priority 2020, published 2024)
